For one test, the system named is CT26 colon cancer cells. Briefly: CT26 colon cancer liver metastasis model. Type of test: in vivo, Balb/c mice. The settings on record: allostatine-1 5 mg/kg daily s.c.; CPT-11 100 mg/kg weekly i.p.
The test system of test [1] is AsPC-1 pancreatic cancer cells. Format: in vivo, Balb/c nude mice. The settings on record: allostatine-1 2.5 mg/kg daily s.c.; paclitaxel 8 mg/kg weekly i.p.

Where a name gives a salt, the structure may show the parent alone. Ends that are not written are not given here.

In turn, `CCc1c2c(nc3ccc(OC(=O)N4CCC(N5CCCCC5)CC4)cc13)-c1cc3c(c(=O)n1C2)COC(=O)[C@]3(O)CC` [CPT-11, Irinotecan hydrochloride] returned a median survival days with CT26 colon cancer cells of 35.5 days.
With `CC(=O)O[C@H]1C(=O)[C@@]2(C)[C@H]([C@H](OC(=O)c3ccccc3)[C@]3(O)C[C@H](OC(=O)[C@H](O)[C@@H](NC(=O)c4ccccc4)c4ccccc4)C(C)=C1C3(C)C)[C@]1(OC(C)=O)CO[C@@H]1C[C@@H]2O` [Paclitaxel], the “Median survival” value in test [1] turned out to be 108 days.
Take “HGVSGWGQHGTHG [Allostatine-1, linear 13-amino acid analog peptide of alloferon-1]”: the “Median survival” value in test [1] came out at 97 days. Also, the median survival days in the test on CT26 colon cancer cells is recorded as 30 days.

Source of the values: patent US20210106648A1, “SYNERGISTIC COMBINATION OF CHEMOTHERAPY AND PEPTIDE FOR TREATING CANCER” (TOBEBIO Novel Drug Laboratory Co., Ltd., priority 2019, published 2021).
